Consider two compounds from patent US20070225492A1 (priority 2004, published 2007).

Each structure is given as a SMILES string. Structures can show the parent of a compound that is named as a salt.

What is called melting point is the temperature of the solid-liquid transition. `CCC(=O)N1CC2CC(C1)N2C/C=C(\C)c1ccccc1` (as salt: hydrochloride): the melting point was 123 to 125 °C.
The result for `CCC(=O)N1CC2CC(C1)N2C/C=C(\CC)c1ccccc1` (as salt: hydrochloride) reads 160 to 163 °C.
